“And” between values parts separate entries of the source, which are not always exact repeats. Equal values may be shown once. Read-outs that look alike come from different tables or passages of the source.
Experiments:
[1] = target: T1, GluA2flip(Q) (A2Q cells) (Homo sapiens, UniProt P42262); test: Calcium flux (Fluo-8) compound CRC assay on A2Q cells; assay type: cell-based; settings: CRC from GLUslope1; 1 mM glutamate; PAM; read-out: EC50 Ca2+ Sensing, A2Q
T1 construct: FLAG (C); expressed in transfected cells

[2] = system: GluA2 alone; settings: published value; cited from earlier work
[3] = system: GluA1-stargazin; parameters: method as in PMID 16785437; settings: published value; cited from earlier work
[4] = target: GluA2flip(R)-CNIH3 (A2R-C3 TetON HEK293 cells) (Homo sapiens, UniProt P42262, Q607R); test: VSD assay (counter-screen, CRC) on A2R-C3 cells; settings: for CMPDmaxmin: max-min 8-100 s; for BaselineReturn: max 250-255 s minus min 0-5 s; for Glumaxmin: max-min normalized value 301-380 s
Source text: Cell lines used in the VSD assays were TetON HEK293 cells. This was the parental cell line for all stable cell lines created. We used GluA2flip(R) TetON HEK cell clone #4 that doxycycline (DOX) dependently expresses GluA2flip(R) (A2R). The A2R cells were used as the base cell line to derive cell lines that co-express auxiliary subunits.
(§1) Greiner 384-pp round-bottom plates containing glutamate for the second add were dispensed by hand using a multi-channel pipet at 5X final concentration. A2R-stg cells were plated in 384-well BD PureCoat amine-coated plates (Corning Life Sciences) at 16k cells/well in DMEM medium supplemented with 10% heat-inactivated FBS and 100U/mL PenStrep antibiotic. […] Cells were incubated overnight (O/N) and washed 4 times in HBSS containing 20 mM HEPES, pH 7.4, on an ELX405CW liquid aspirator and dispenser (BioTek). Buffer was left in the wells and an equal amount of 2X FLIPR dye solution was added and incubated on the cells at room temperature for 45 min. Fluorescence signal was collected at 1 Hz using Ex. 480±20 nm/Em. 540±40 nm on a Hamamatsu Functional Drug Screening System 6000 (FDSS). Baseline signal was collected for 10 seconds followed by addition of 10 μl of 5X compound for a final concentration of 10 μM.
This assay was carried out in the same way as the VSD screening assay except a 10-point concentration curve, from 40 μM to 10 nM, was plated in triplicate for each compound on a single 384-well plate. Data were summarized by plotting them as %max GLUslope against log [compound] that was fit to a four-parameter logistical model. %max GLUslope is defined as a normalized GLUslope expressed as a percentage of the mean maximum GLUslope, defined as 100, where background mean vehicle control (VHLslope) were subtracted from both values on a per plate basis. Thus, %max GLU slope = (GLUslope-mean VHLslope/mean maxGLUslope-mean VHLslope).

[5] = target: GluA2flip(Q)-CNIH3 (A2Q-C3 cells) (Homo sapiens, UniProt P42262); test: Calcium flux (Fluo-8) compound CRC assay on A2Q-C3 cells
Source text: (§2) Cell lines used in the calcium flux assay were GluA2flip(Q)-FLAG + GSG1L-1D4 pTREt-Va dual expression in TetON HEK cell clone #20 (A2Q-GSG), GluA2flip(Q)-FLAG + CNIH3-1D4 pTREt-Va dual expression in TetON HEK cell clone #8 (A2Q-C3), GluA2flip(Q)-FLAG pTREt-Va in TetON HEK cell clone #5 (A2Q), and tethered GluA2flip(Q)-FLAG-stargazin [28] in pTREt-Va dual expression in TetON HEK cell clone #13 (A2Q-stg) (Summarized in Table 1).
(§3) Compounds that were selected as hits using the VSD assay were subsequently screened against the calcium permeable A2Q-stg and A2Q-C3 cell lines in a glutamate potency fold-shift assay using the calcium sensing dye Fluo-8 (AAT Bioquest cat #21080). This assay is used to measure how pretreatment with compounds shifts the EC50 of glutamate on A2Q-stg and A2Q-C3 cells. 30 μM of each compound was pre-incubated with the cells for 120 secs and then an 11-point glutamate CRC from 4 mM to 10 pM was applied to the cells for 180 sec. […] Greiner 384-pp round-bottom plates containing glutamate solutions were dispensed by hand using a multi-channel pipet at 5X final concentration. […] Sodium butyrate and DOX were added to the cells at 1 mM and 5 μg/mL, respectively, 24 hours before screening. A2Q-stg cells were induced with 10 μg/mL DOX. Cells were incubated O/N and washed 4 times in low calcium buffer on an ELX405CW liquid aspirator and dispenser (BioTek). Buffer was left in the wells and an equal amount of 4.6 μM (2X) Fluo-8 (AAT Bioquest cat #21080) solution with 2.5 mM probenecid was added and incubated on the cells at room temperature for 40 minutes. Probenecid was added to block dye efflux from the cells [29]. Dye was washed off with low calcium buffer using the ELX405CW (BioTek) and plates were immediately inserted into the FDSS (Hamamatsu). Fluorescence signal was collected at 1 Hz using Ex. 480±20 nm/Em. 540±40 nm. Baseline signal was collected for 10 seconds followed by addition of 20 μl of 2X compound for a final concentration of 30 μM. After 290 seconds, 10 μl of a 5X glutamate solution in high calcium buffer (10 mM HEPES, pH 7.4, 140 mM NaCl, 5 mM KCl, 1 mM MgCl2, 9 mM CaCl2, and 10 mM glucose) was added for 180 seconds.
(§4) These compound CRCs were applied to the cells 2 minutes before a 1mM glutamate stimulation. […] Normalized FDSS traces were curve fit to CRCs using the initial GLUslope (GLUslope1) in a 3–6 sec window after glutamate application. CRCs were also plotted for the traces’ area under the curve (AUC) in the GLUmaxmin window. […] Compounds were plotted as %max GLUslope against log [compound] and fit to a four-parameter logistical model as in the VSD.
(§5) Cells were loaded with Fluo-8 and excess dye was washed out. After 120 secs of pre-incubation with compound at concentrations ranging from 30 μM to 30 nM (Fig 4Bi), 1 mM glutamate was added (Fig 4Bii). In the calcium assay, 250 μM was used as the maxGLU dose because the GLUslope1 values decreased at higher concentrations of glutamate, making it the dose with the maximal GLUslope1 response. […] We measured GLUslope in three consecutive time windows, referred to as GLUslope1-3, because three phases were clearly detectable (Fig 4C). The final CRC curves were calculated from GLUslope1, obtained from the first 3–6 sec window.
(§6) The final compound CRC curves were calculated from GLUslope1. […] The AUC measures the accumulation of calcium instead of gating and sometimes produced a CRC fit when GLUslope1 could not derive an EC50 value.

[6] = target: GluA2flip(Q)-GSG1L (A2Q-GSG cells) (Homo sapiens, UniProt P42262); test: Calcium flux (Fluo-8) compound CRC assay on A2Q-GSG cells
Source text: as §2, §3, §4, §5, §6

[7] = target: GluA2flip(R)-stargazin (A2R-stg TetON HEK293 cells) (Homo sapiens, UniProt P42262, Q607R); test: Voltage-sensitive dye (VSD) assay (primary screen, counter-screen, CRC) on A2R-stg cells; settings: for CMPDmaxmin: max-min 8-100 s, only compound present; for BaselineReturn: max 250-255 s minus min 0-5 s; for Glumaxmin: max-min normalized value 301-380 s; for Glumaxmin / GluSlope: compound and glutamate present; for GluSlope: slope 310-315 s
Chain of GluA2flip(R)-stargazin (A2R-stg TetON HEK293 cells) (P42262 25-883 isoform P42262-2 Q607R limits assumed): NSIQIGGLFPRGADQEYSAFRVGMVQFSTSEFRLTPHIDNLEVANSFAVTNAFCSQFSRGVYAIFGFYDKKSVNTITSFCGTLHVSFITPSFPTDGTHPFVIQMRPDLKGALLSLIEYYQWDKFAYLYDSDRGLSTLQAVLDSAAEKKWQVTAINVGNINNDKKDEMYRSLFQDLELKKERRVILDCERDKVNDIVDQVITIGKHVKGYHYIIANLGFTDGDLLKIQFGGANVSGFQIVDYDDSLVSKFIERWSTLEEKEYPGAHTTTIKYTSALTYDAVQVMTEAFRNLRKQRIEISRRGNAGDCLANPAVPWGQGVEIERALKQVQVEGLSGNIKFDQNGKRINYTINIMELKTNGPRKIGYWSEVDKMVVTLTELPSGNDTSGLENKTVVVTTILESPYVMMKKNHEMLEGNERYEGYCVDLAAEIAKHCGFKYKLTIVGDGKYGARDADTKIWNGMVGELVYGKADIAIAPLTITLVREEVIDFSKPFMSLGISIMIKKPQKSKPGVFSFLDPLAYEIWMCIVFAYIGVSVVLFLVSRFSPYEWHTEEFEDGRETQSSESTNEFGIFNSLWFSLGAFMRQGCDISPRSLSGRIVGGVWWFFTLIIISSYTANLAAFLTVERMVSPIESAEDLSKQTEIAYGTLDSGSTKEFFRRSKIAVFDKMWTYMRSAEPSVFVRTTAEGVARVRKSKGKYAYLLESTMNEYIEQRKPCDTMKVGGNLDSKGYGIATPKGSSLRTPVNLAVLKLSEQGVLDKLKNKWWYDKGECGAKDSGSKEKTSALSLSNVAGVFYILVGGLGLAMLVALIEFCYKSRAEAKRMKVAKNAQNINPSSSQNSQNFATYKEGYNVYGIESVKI
Chain of GluA2flip(R)-stargazin (A2R-stg TetON HEK293 cells) (Q9Y698 whole entry partner): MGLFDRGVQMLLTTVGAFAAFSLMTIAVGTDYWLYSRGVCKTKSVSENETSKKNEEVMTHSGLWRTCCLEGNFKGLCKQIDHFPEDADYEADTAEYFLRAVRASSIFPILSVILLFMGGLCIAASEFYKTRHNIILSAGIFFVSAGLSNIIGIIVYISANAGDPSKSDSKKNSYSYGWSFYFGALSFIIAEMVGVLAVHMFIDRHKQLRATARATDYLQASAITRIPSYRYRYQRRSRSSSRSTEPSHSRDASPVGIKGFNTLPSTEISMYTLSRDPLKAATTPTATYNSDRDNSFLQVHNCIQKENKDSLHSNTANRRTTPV
Procedure: Cell lines used in the VSD assays were TetON HEK293 cells. […] We used GluA2flip(R) TetON HEK cell clone #4 that doxycycline (DOX) dependently expresses GluA2flip(R) (A2R). The A2R cells were used as the base cell line to derive cell lines that co-express auxiliary subunits.
as §1
Hits were selected from this initial screen using 4 different criteria, which we termed CMPDslope, CMPDmaxmin, GLUslope, and GLUmaxmin. […] GLUslope is the fitted slope of the increase in fluorescence within 10 sec after adding glutamate. GLUmaxmin is the difference in the minimum and maximum value in fluorescence signal reached in the 100 sec window after adding glutamate. Compounds were classified as hits if they differed by 3 standard deviations of the mean for each criterion. Tier 1 hits were classified as those that hit in the GLUslope, GLUmaxmin, and CMPDmaxmin windows. Tier 2 hits were classified as compounds that hit in the GLUslope window and either the GLUmaxmin or CMPDmaxmin window. Tier 3 hits were classified as those that hit in only the GLUslope or the GLUmaxmin window. Tier 4 hits were classified as compounds that hit only in the CMPD window, CMPDslope or CMPDmaxmin. Hit selection was further narrowed using the criterion that their signal must return to near baseline values before entering the glutamate add window.
VSD concentration response curves (CRCs): After the above counter-screens, compounds that remained positive were moved forward to collect complete CRCs for A2R-stg and A2R-C3 cell lines. This assay was carried out in the same way as the VSD screening assay except a 10-point concentration curve, from 40 μM to 10 nM, was plated in triplicate for each compound on a single 384-well plate. Data were summarized by plotting them as %max GLUslope against log [compound] that was fit to a four-parameter logistical model. %max GLUslope is defined as a normalized GLUslope expressed as a percentage of the mean maximum GLUslope, defined as 100, where background mean vehicle control (VHLslope) were subtracted from both values on a per plate basis. Thus, %max GLU slope = (GLUslope-mean VHLslope/mean maxGLUslope-mean VHLslope).

Chain of GluA2flip(R)-CNIH3 (A2R-C3 TetON HEK293 cells) (P42262 25-883 isoform P42262-2 Q607R limits assumed): as the sequence (P42262 25-883 isoform P42262-2 Q607R limits assumed) above
Chain of GluA2flip(R)-CNIH3 (A2R-C3 TetON HEK293 cells) (Q8TBE1 whole entry partner): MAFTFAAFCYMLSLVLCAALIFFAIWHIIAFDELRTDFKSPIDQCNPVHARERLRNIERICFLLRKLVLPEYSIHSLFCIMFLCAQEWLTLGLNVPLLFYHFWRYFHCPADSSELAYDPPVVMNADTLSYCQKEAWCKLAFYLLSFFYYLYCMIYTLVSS
T1 sequence (P42262 25-883 isoform P42262-2 limits assumed): as the sequence (P42262 25-883 isoform P42262-2 Q607R limits assumed) above, with R583Q counted along it
Chain of GluA2flip(Q)-CNIH3 (A2Q-C3 cells) (P42262 25-883 isoform P42262-2 limits assumed): as the sequence (P42262 25-883 isoform P42262-2 Q607R limits assumed) above, with R583Q counted along it
Chain of GluA2flip(Q)-CNIH3 (A2Q-C3 cells) (Q8TBE1 whole entry partner): as the sequence (Q8TBE1 whole entry partner) above
Chain of GluA2flip(Q)-GSG1L (A2Q-GSG cells) (P42262 25-883 isoform P42262-2 limits assumed): as the sequence (P42262 25-883 isoform P42262-2 Q607R limits assumed) above, with R583Q counted along it
Chain of GluA2flip(Q)-GSG1L (A2Q-GSG cells) (Q6UXU4 whole entry partner): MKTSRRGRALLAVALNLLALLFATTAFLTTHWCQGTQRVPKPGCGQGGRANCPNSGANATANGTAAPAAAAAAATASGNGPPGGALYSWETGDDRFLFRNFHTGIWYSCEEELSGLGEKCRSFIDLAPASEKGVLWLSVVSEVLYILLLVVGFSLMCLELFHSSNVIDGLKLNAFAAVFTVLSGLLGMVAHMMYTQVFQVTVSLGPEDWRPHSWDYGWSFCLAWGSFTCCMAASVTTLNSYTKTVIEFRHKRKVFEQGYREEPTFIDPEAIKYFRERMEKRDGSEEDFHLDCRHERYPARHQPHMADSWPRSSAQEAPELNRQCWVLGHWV

Structure (SMILES): NS(=O)(=O)c1cc2c(cc1Cl)NC(C1CC3C=CC1C3)NS2(=O)=O (stereo not shown) [CTZ, cyclothiazide]
- EC50 [1]: 1.9 µM
- EC50 [2]: 2.2 µM
- EC50 [3]: 2 µM
- EC50 [4]: 0.8 µM
- CMPDmaxmin ([4]; 1.95313e-6 M ligand, compound only, per well): 0.02498 and 0.01841 and 0.01791 and 0.02774
- CMPDmaxmin ([4]; 3.90625e-6 M ligand, compound only, per well): 0.02327 and 0.02311 and 0.02554 and 0.02077
- GluSlope ([4]; 3.90625e-6 M ligand, slope of normalized value 310-315 s, compound+glutamate, per well): 3.655e-6 and 4.544e-6 and 4.211e-6 and 5.143e-6 and 7.279e-6 and 5.643e-6
- BaselineReturn ([4]; 7.8125e-6 M ligand, per well): 0.02655 and 0.02476
- CMPDmaxmin ([4]; 7.8125e-6 M ligand, compound only, per well): 0.03133 and 0.03273
- Glumaxmin ([4]; 7.8125e-6 M ligand, compound+glutamate, per well): 0.1051 and 0.1531
- GluSlope ([4]; 7.8125e-6 M ligand, slope of normalized value 310-315 s, compound+glutamate, per well): 1.084e-5 and 1.388e-5
- BaselineReturn ([4]; 7.8125e-6 M, per well): 0.01945 and 0.0284 and 0.03375 and 0.02763
- CMPDmaxmin ([4]; 7.8125e-6 M, only compound present, per well): 0.02499 and 0.03299 and 0.03909 and 0.04405
- Glumaxmin ([4]; 7.8125e-6 M, compound and glutamate present, per well): 0.1519 and 0.1861 and 0.161 and 0.1533
- GluSlope ([4]; 7.8125e-6 M, slope 310-315 s, compound and glutamate present, per well): 1.427e-5 and 1.51e-5 and 1.46e-5 and 1.177e-5
- BaselineReturn ([4]; 1.5625e-5 M, per well): 0.04439 and 0.04696 and 0.04628 and 0.04829 and 0.04336 and 0.0478
- CMPDmaxmin ([4]; 1.5625e-5 M, only compound present, per well): 0.04028 and 0.05159 and 0.051 and 0.04736 and 0.04942 and 0.04289
- Glumaxmin ([4]; 1.5625e-5 M, compound and glutamate present, per well): 0.222 and 0.2669 and 0.2275
- GluSlope ([4]; 1.5625e-5 M, slope 310-315 s, compound and glutamate present, per well): 1.982e-5 and 1.758e-5 and 1.735e-5 and 2.35e-5 and 2.196e-5 and 2.323e-5
- Glumaxmin ([4]; 3.125e-5 M, compound and glutamate present, per well): 0.3443 and 0.3512 and 0.3188 and 0.318 and 0.3671
- GluSlope ([4]; 3.125e-5 M, slope 310-315 s, compound and glutamate present, per well): 2.5659e-5 and 2.5089e-5 and 2.398e-5 and 2.252e-5 and 2.824e-5 and 2.481e-5
- BaselineReturn ([4]; 6.25e-5 M, per well): 0.06773 and 0.07885 and 0.0633 and 0.06912 and 0.08153 and 0.08744
- CMPDmaxmin ([4]; 6.25e-5 M, only compound present, per well): 0.07201 and 0.07489 and 0.07237 and 0.06864 and 0.0824 and 0.08958
- Glumaxmin ([4]; 6.25e-5 M, compound and glutamate present, per well): 0.3694 and 0.3861 and 0.381 and 0.3994 and 0.4282 and 0.4362
- GluSlope ([4]; 6.25e-5 M, slope 310-315 s, compound and glutamate present, per well): 2.565e-5 and 2.689e-5 and 2.837e-5 and 2.784e-5 and 3.091e-5 and 2.855e-5
- CMPDmaxmin ([4]; 0.00025 M, only compound present, per well): 0.06294 and 0.04965 and 0.05528 and 0.07959 and 0.04247 and 0.05305
- Glumaxmin ([4]; 0.0005 M, compound and glutamate present, per well): 0.4488 and 0.457 and 0.483 and 0.5352 and 0.5162 and 0.5252
- GluSlope ([4]; 0.0005 M, slope 310-315 s, compound and glutamate present, per well): 2.6241e-5 and 2.3366e-5 and 3.012e-5 and 2.914e-5 and 2.692e-5 and 2.648e-5
- activity at 250 µM ([4]; HEK293, read-out: AVE %MAXCMPDslope, 0.00025 M, average for the concentration): 20.3%
- activity at 500 µM ([4]; HEK293, read-out: AVE %MAXCMPDslope, 0.0005 M, average for the concentration): 20.7%
- activity at […] ([4]; HEK293, read-out: AVE %MAXCMPDslope, […], average for the concentration): 19.2%
- activity at 250 µM ([4]; HEK293, read-out: AVE %MAXslope, 0.00025 M, average for the concentration): 68.1%
- activity at […] ([4]; HEK293, read-out: AVE %MAXslope, […], average for the concentration): 63.8%
- activity at 500 µM ([4]; HEK293, read-out: pctMAX, 0.0005 M, Glumaxmin vs vhl and glutamate controls, per well): 57.7%
- activity at 500 µM ([4]; HEK293, read-out: pctMAXslope, 0.0005 M, GluSlope vs vhl and glutamate controls, per well): 67.5%
- activity at 250 µM ([4]; HEK293, read-out: pctMAXslopeCMPD, 0.00025 M, CMPDSlope vs vhl and glutamate controls, per well): 18.6%
- activity at 500 µM ([4]; HEK293, read-out: pctMAXslopeCMPD, 0.0005 M, CMPDSlope vs vhl and glutamate controls, per well): 18.6%
- activity at […] ([4]; HEK293, read-out: pctMAXslopeCMPD, […], CMPDSlope vs vhl and glutamate controls, per well): 19.3%
- EC50 [5]: 0.4 µM
- EC50 [6]: 1.6 µM
- EC50 [7]: 0.9 µM
- CMPDmaxmin ([7]; 1.95313e-6 M): 0.01995 and 0.02197 and 0.02343 and 0.0204 and 0.02099
- BaselineReturn ([7]; 3.90625e-6 M): 0.01694 and 0.02593 and 0.02261 and 0.02289 and 0.01533 and 0.01439
- CMPDmaxmin ([7]; 3.90625e-6 M): 0.02654 and 0.02518 and 0.0211 and 0.01857
- BaselineReturn ([7]; 7.8125e-6 M): 0.02783 and 0.02662 and 0.0353 and 0.03259 and 0.02886 and 0.02588
- CMPDmaxmin ([7]; 7.8125e-6 M): 0.0268 and 0.03115 and 0.03117 and 0.04146 and 0.02344 and 0.0309
- Glumaxmin ([7]; 7.8125e-6 M): 0.1527 and 0.1804 and 0.2045 and 0.2207
- GluSlope ([7]; 7.8125e-6 M): 1.356e-5 and 1.3e-5 and 1.265e-5 and 1.674e-5 and 1.689e-5 and 1.461e-5
- CMPDmaxmin ([7]; 1.5625e-5 M): 0.03354 and 0.03952 and 0.05587 and 0.04086 and 0.03876 and 0.03573
- Glumaxmin ([7]; 1.5625e-5 M): 0.2558 and 0.3432 and 0.3162 and 0.3337
- GluSlope ([7]; 1.5625e-5 M): 1.634e-5 and 1.622e-5 and 1.53e-5 and 2.233e-5 and 2.059e-5 and 2.204e-5
- BaselineReturn ([7]; 3.125e-5 M): 0.0693 and 0.04071 and 0.04552 and 0.04058 and 0.03606 and 0.0477
- CMPDmaxmin ([7]; 3.125e-5 M): 0.05834 and 0.04067 and 0.04238 and 0.04539 and 0.03379 and 0.04106
- Glumaxmin ([7]; 3.125e-5 M): 0.4026 and 0.4044 and 0.3672 and 0.4286 and 0.4072
- CMPDmaxmin ([7]; 6.25e-5 M): 0.04424 and 0.05275 and 0.04401 and 0.03573 and 0.03351 and 0.03343
- Glumaxmin ([7]; 6.25e-5 M): 0.4053 and 0.4064 and 0.4608 and 0.469 and 0.4686 and 0.4908
- GluSlope ([7]; 6.25e-5 M): 1.974e-5 and 2.267e-5 and 2.556e-5 and 2.473e-5 and 2.4778e-5 and 2.559e-5
- CMPDmaxmin ([7]; 0.00025 M): 0.0338 and 0.0291 and 0.02948 and 0.02774 and 0.02398 and 0.02262
- Glumaxmin ([7]; 0.00025 M): 0.4981 and 0.5117 and 0.5708 and 0.5208 and 0.5482 and 0.5112
- GluSlope ([7]; 0.00025 M): 2.302e-5 and 2.432e-5 and 2.511e-5 and 2.509e-5 and 2.863e-5 and 2.554e-5
- CMPDmaxmin ([7]; 0.0005 M): 0.04815 and 0.05143 and 0.02949 and 0.04218 and 0.05076 and 0.0521
- Glumaxmin ([7]; 0.0005 M): 0.4797 and 0.5039 and 0.3566 and 0.5216 and 0.4987 and 0.5435
- GluSlope ([7]; 0.0005 M): 2.0723e-5 and 2.479e-5 and 1.376e-5 and 2.232e-5 and 2.492e-5 and 2.656e-5
- activity at 250 µM ([7]; HEK293, read-out: AVE %MAXCMPDslope, 0.00025 M, average of wells): 28.2%
- activity at 500 µM ([7]; HEK293, read-out: AVE %MAXCMPDslope, 0.0005 M, average of wells): 27.5%
- activity at […] ([7]; HEK293, read-out: AVE %MAXCMPDslope, […], average of wells): 29%
- activity at 250 µM ([7]; HEK293, read-out: AVE %MAXslope, 0.00025 M, average of wells): 71.3%
- activity at 500 µM ([7]; HEK293, read-out: AVE %MAXslope, 0.0005 M, average of wells): 65.9%
- activity at […] ([7]; HEK293, read-out: AVE %MAXslope, […], average of wells): 68.4%
- activity at 250 µM ([7]; HEK293, read-out: pctMAX, 0.00025 M, Glumaxmin as percentage MAX (vhl and glutamate controls)): 55.4%
- activity at […] ([7]; HEK293, read-out: pctMAX, […], Glumaxmin as percentage MAX (vhl and glutamate controls)): 44.5%
- activity at 250 µM ([7]; HEK293, read-out: pctMAXslope, 0.00025 M, GluSlope as percentage MAX): 67.4%
- activity at […] ([7]; HEK293, read-out: pctMAXslope, […], GluSlope as percentage MAX): 64.2%
- activity at 250 µM ([7]; HEK293, read-out: pctMAXslopeCMPD, 0.00025 M, CMPDSlope as percentage MAX): 27.7%
- activity at 500 µM ([7]; HEK293, read-out: pctMAXslopeCMPD, 0.0005 M, CMPDSlope as percentage MAX): 26.2%
- activity at […] ([7]; HEK293, read-out: pctMAXslopeCMPD, […], CMPDSlope as percentage MAX): 28.9%
